The values that follow come from ChEMBL document CHEMBL1156245, “Structure-activity relationships for substrate-based inhibitors of human complement factor B” (J Med Chem, 2009).

Data set [1] in a line: Inhibition of cobra C3/C5 convertase assessed as inhibition of C3a and C5a fragment formation. Also noted: species or system Naja naja.
The target in data set [2] is T1, Complement factor B (Homo sapiens, UniProt P00751). Nature of the data set: Inhibition of human complement factor B treated for 5 mins before addition of substrate Ac-SHLGLAR-pNA at pH 9.5 by chromogenic assay.
Data set [3] deals with T1, Complement factor B. Nature of the data set: Inhibition of human C3 convertase assessed as inhibition of C3a and C3b fragment production at pH 7.4 after 30 mins by SDS-PAGE.
Data set [4] has as its target T1, Complement factor B. Nature of the data set: Inhibition of human C3 convertase assessed as inhibition of C3a and C3b fragment production at pH 7.4 after 30 mins by SDS-PAGE using 7% (w/v) polyacrylamide gel.
The nature of data set [5]: Inhibition of alternative complement system-mediated hemolysis of rabbit erythrocytes assessed as haemoglobin release after 30 mins by UV/vis spectrophotometry. Also noted: species or system Oryctolagus cuniculus.
Data set [6] can be described thus: Inhibition of human alternative complement system-mediated membrane attack complex formation by ELISA.
In data set [7] the target is T1, Complement factor B. Nature of the data set: Inhibition of human complement factor B at pH 9.5 by chromogenic assay.
The target in data set [8] is T1, Complement factor B. Put plainly: Inhibition of human C3/C5 convertase assessed as inhibition of C3 cleavage.
A short description of data set [9]: Solubility in water. It counts as physicochemical. Particulars: buffer.
Data set [10] is described as follows: Metabolic stability in human serum assessed as compound remaining at 1 mM after 3 hrs by LC-MS analysis. It counts as ADME, cell-free. The conditions noted are these: read-out: Stability.

Peptide text beside a SMILES is read from it.

T1 sequence (P00751 whole entry, the tested form may be a part): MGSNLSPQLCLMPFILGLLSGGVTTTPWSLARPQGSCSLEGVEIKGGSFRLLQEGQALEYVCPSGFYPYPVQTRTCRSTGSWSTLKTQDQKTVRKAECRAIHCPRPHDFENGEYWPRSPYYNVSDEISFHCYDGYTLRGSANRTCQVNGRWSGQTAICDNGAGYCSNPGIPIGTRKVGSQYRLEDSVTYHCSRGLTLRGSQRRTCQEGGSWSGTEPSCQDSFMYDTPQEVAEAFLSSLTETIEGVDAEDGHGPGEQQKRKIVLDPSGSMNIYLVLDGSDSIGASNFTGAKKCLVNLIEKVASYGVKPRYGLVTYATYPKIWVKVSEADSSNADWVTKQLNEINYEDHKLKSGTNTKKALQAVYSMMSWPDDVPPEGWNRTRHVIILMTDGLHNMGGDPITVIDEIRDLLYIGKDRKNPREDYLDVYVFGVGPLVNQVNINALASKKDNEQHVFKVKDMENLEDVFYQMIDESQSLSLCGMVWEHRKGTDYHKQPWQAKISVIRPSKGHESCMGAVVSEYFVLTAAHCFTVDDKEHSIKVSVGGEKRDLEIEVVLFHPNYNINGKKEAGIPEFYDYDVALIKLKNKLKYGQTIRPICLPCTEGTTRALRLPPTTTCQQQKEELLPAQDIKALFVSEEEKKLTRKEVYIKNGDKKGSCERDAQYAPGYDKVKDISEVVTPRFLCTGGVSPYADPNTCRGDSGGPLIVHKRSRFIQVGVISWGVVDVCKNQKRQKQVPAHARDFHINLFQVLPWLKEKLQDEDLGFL

Turning to `N=C(N)Nc1ccc(C(=O)Oc2ccc3cc(C(=N)N)ccc3c2)cc1`, in [1], the IC50 amounted to 4 µM. As to `CC(=O)N[C@@H](CC(C)C)C(=O)N[C@@H](CC(C)C)C(=O)N[C@@H](C)C(=O)N[C@@H](CCCN=C(N)N)C(=O)O` (Ac-LLAR-OH), the IC50 on Complement factor B [2] was found to be 12 µM.

With `CC(C)C[C@H](NC(=O)[C@H](CCC1CCCCC1)NC(=O)[C@H](CC(C)C)NC(=O)[C@H](Cc1cnc[nH]1)NC(=O)[C@@H](N)CO)C(=O)N[C@@H](C)C(=O)N[C@@H](CCCN=C(N)N)C(=O)O` (HELM PEPTIDE1{S.H.L.[O=C([C@H](CCC1CCCCC1)N[*:1])[*:2]].L.A.R}$$$$V2.0), on Complement factor B [2], the IC50 came to 5 µM. As for `CC(=O)N[C@@H](CCCNC(=N)N)C(=O)N[C@@H](CC(C)C)C(=O)N[C@@H](CC(C)(C)C)C(=O)N[C@@H](CC(C)C)C(=O)N[C@@H](C)C(=O)N[C@@H](CCCNC(=N)N)C(=O)O` (HELM PEPTIDE1{[ac].R.L.[CC(C)(C)C[C@H](N[*:1])C(=O)[*:2]].L.A.R}$$$$V2.0), the IC50 at Complement factor B [3] came to 10 µM; in [5], 9.7 µM; on Complement factor B [2], 0.25 µM; in data set [6], 0.32 µM. Also, the inhibition result on Complement factor B [4] was “Dose-dependent effect”.

`CC(=O)N[C@@H](CO)C(=O)N[C@@H](Cc1cnc[nH]1)C(=O)N[C@@H](CC(C)C)C(=O)NCC(=O)N[C@@H](CC(C)C)C(=O)N[C@@H](C)C(=O)N[C@@H](CCCN=C(N)N)C(=O)Nc1ccc([N+](=O)[O-])cc1` (HELM PEPTIDE1{[ac].S.H.L.G.L.A.R.[O=[N+]([O-])c1ccc(N[*:1])cc1]}$$$$V2.0): the IC50 against Complement factor B [7] is 19 µM.

As for `CCCC[C@H](NC(=O)[C@H](Cc1cnc[nH]1)NC(=O)[C@H](CO)NC(C)=O)C(=O)N[C@@H](CC(C)C)C(=O)N[C@@H](CC(C)C)C(=O)N[C@@H](C)C(=O)N[C@@H](CCCNC(=N)N)C(=O)O` (HELM PEPTIDE1{[ac].S.H.[Nle].L.L.A.R}$$$$V2.0), the IC50 against Complement factor B [2] is 5 µM. On the same count and under the same terms, the value for `CC(=O)N[C@@H](Cc1ccc(F)cc1)C(=O)N[C@@H](Cc1cnc[nH]1)C(=O)N[C@@H](CC(C)C)C(=O)NCC(=O)N[C@@H](CC(C)C)C(=O)N[C@@H](C)C(=O)N[C@@H](CCCN=C(N)N)C(=O)O` (HELM PEPTIDE1{[ac].[O=C([C@H](Cc1ccc(F)cc1)N[*:1])[*:2]].H.L.G.L.A.R}$$$$V2.0) was 13 µM. On to `CC[C@H](C)[C@H](N)C(=O)N[C@H]1CSSC[C@@H](C(=O)N[C@H](C(N)=O)[C@@H](C)O)NC(=O)[C@H](CCCN=C(N)N)NC(=O)[C@H](Cc2cnc[nH]2)NC(=O)[C@H](Cc2cnc[nH]2)NC(=O)CNC(=O)[C@H](Cc2c[nH]c3ccccc23)NC(=O)[C@H](CC(=O)O)NC(=O)[C@H](CCC(N)=O)NC(=O)[C@H](C(C)C)NC(=O)[C@H](C(C)C)NC1=O` [COMPSTATIN], for which, on Complement factor B [8], the IC50 came out at 12 µM. Take Ac-FHLGLAR-OH: the IC50 at Complement factor B [2] amounted to 23 µM. Ac-HLLLAR-OH: the IC50 on Complement factor B [2] is 3 µM. In turn, Ac-LLLAR-OH came in with an IC50 on Complement factor B [2] of 3 µM. Take Ac-RLLLAR-OH [listing 1 of 2 here]: the results for the IC50 on Complement factor B [3] and against Complement factor B [2] were 50 µM and 0.6 µM, respectively. Also, the solubility entry in data set [9] is listed as “Soluble”. In [10], the remaining at 3 h, 1000 µM is 80%. For Ac-RLLLAR-OH [listing 2 of 2 here], the inhibition result on Complement factor B [4] was “Dose-dependent effect”. The IC50 was determined as 20.8 µM in [5] and 1 µM in [6]. As for Ac-RLLLGR-OH, half-maximal inhibition against Complement factor B [2] (IC50) was put at 7 µM. On to Ac-SHLGLAR-OH, for which the IC50 in data set [5] worked out at 243 µM; against Complement factor B [2], 19 µM; in data set [6], 21.1 µM. For the same molecule, the remaining at 3 h, 1000 µM in data set [10] amounted to 80%. Regarding Ac-SHLLLAR-OH, the midpoint of inhibition at Complement factor B [2], the IC50, lay at 4 µM.
